Here are results for two molecules from patent publication US4816486A, “Amide derivatives and 5-lypoxygenase inhibitors containing the same” (Terumo Corporation, priority 1985, dated 1989).

This assay has as its target T1, 5-lypoxygenase (Mus musculus, UniProt P48999).
T1 construct: The supernatant was used as the 5-lypoxygenase enzyme solution; endogenous in cells; host or cells: mouse mastocytoma P815 cells (supernatant of sonicated cells)
T1 sequence (P48999 1-674): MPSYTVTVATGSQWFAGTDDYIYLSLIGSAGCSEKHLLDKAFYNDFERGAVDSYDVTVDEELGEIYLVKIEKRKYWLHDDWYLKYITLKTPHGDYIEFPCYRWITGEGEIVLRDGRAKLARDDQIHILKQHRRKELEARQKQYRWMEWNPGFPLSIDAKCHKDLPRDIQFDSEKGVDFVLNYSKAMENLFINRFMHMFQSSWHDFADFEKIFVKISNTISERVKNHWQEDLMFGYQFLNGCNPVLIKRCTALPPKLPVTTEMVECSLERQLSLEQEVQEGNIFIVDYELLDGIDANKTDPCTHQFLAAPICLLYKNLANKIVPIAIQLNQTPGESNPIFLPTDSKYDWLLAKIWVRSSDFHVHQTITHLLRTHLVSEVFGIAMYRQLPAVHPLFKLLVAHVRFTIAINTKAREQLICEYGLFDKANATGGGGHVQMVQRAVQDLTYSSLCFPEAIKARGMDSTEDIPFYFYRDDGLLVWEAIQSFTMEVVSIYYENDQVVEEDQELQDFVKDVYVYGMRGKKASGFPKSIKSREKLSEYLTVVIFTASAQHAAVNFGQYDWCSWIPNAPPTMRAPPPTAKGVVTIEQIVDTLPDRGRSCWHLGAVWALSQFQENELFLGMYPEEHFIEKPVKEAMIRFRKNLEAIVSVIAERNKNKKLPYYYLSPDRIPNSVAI
The experiment in a line: 5-Lypoxygenase-inhibiting activity (formation of 5-HETE and LTB4 from radiolabelled arachidonic acid, supernatant of sonicated mouse mastocytoma P815 cells). As to conditions: inhibition of formation of 5-HETE and LTB4; 37° C., 5 min; pH 7.4 phosphate buffer; P815 cell supernatant; indomethacine present; read-out: 50% inhibitory concentration IC50. The format is biochemical. How it is done:
Mouse mastocytoma cells, strain P815 were diluted in a medium containing 90% of the Eagle basal medium (manufactured by Gibco Laboratories) to a cencentration of 5×10^4 cells/ml. The diluted liquor was subjected to shake culture in air at 37° C. for 48 hours. The culture liquor was cooled with ice and centrifuged to collect the cells. The cells were re-suspended in a phosphate buffer solution at pH 7.4 to a concentration of 2×10^7 cells/ml. The suspension was treated in an ultrasonic cell fragmenting machine and then centrifuged at […] for 10 min. The supernatant was used as the 5-lypoxygenase enzyme solution. To a test tube in which 20 μl of radiolabelled arachidonic acid (10 μ curies/ml), indomethacine ([…]) and an amide derivative of the invention to be tested were placed 0.45 ml of phosphate buffer solution, 0.45 ml of the above-prepared enzyme solution and 0.1 ml of 8 mM CaCl2 (calcium chloride) solution. The mixture was reacted at 37° C. for 5 min. […] Determination of the inhibitory activity was made by collecting the portion corresponding to 5-HBTE (5-(s)-hydroxy-6,8,11,14-eicosatetraenic acid) and LTB4 (leucotriene B4), which were 5-lypoxygenase products as detected with a radio-thin layer scanner (Dunnschicht-scanner II LB 2723 manufactured by Berthold), and measuring the radioactivity by means of a scintillation counter. […]

As to `COc1cc(/C=C/C(=O)Nc2c(Br)cc(Br)cc2CN(C)C2CCCCC2)ccc1O` [Example 1, N-cyclohexyl-N-methyl-(2-(3-(3-methoxy-4-hydroxyphenyl)-2-propenoylamino)-3,5-dibromobenzyl)amine], the IC50 worked out at 4 µM.

In the case of `COc1cc(/C=C/C=C/C(=O)Nc2c(Br)cc(Br)cc2CN(C)C2CCCCC2)ccc1O` [Example 2, N-cyclohexyl-N-methyl-(2-(5-(3-methoxy-4-hydroxyphenyl)2,4-pentadienoylamino)-3,5-dibromobenzyl)amine], the IC50 turned out to be 0.3 µM.
